Results published in patent US11291666B2, “Uses” (INTRA-CELLULAR THERAPIES, INC., priority 2016, dated 2022).

What was measured:
bovine retina PDE6 = target: T1, bovine retina PDE6 (Bos taurus, UniProt P11541+P23439); assay: PDE selectivity, bovine retina PDE6; format: biochemical
T1 construct: bovine retina PDE6; from tissue; host or cells: bovine retina
T1 sequence (P11541 2-856 limits assumed): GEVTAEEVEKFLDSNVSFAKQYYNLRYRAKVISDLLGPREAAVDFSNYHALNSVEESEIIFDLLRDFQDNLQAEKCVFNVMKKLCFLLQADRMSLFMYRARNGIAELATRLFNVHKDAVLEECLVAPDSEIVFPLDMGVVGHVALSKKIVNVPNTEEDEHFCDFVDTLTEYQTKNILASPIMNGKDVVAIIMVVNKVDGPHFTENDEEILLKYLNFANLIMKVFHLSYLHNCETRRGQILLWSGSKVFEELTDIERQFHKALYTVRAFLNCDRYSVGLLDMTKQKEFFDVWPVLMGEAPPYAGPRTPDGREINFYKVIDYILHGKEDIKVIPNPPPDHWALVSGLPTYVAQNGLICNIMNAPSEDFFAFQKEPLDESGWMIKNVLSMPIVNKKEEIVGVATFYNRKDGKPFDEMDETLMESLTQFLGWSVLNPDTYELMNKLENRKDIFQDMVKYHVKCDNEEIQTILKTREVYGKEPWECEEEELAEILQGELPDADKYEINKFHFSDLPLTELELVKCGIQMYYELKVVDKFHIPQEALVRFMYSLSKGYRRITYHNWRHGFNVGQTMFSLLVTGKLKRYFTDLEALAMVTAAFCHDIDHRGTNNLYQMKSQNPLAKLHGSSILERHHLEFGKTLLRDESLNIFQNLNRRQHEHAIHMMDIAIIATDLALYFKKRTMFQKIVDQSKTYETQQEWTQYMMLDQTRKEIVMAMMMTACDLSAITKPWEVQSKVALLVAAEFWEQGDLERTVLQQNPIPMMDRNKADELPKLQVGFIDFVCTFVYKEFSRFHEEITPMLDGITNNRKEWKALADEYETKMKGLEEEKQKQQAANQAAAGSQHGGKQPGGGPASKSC
T1 sequence (P23439 2-850 limits assumed): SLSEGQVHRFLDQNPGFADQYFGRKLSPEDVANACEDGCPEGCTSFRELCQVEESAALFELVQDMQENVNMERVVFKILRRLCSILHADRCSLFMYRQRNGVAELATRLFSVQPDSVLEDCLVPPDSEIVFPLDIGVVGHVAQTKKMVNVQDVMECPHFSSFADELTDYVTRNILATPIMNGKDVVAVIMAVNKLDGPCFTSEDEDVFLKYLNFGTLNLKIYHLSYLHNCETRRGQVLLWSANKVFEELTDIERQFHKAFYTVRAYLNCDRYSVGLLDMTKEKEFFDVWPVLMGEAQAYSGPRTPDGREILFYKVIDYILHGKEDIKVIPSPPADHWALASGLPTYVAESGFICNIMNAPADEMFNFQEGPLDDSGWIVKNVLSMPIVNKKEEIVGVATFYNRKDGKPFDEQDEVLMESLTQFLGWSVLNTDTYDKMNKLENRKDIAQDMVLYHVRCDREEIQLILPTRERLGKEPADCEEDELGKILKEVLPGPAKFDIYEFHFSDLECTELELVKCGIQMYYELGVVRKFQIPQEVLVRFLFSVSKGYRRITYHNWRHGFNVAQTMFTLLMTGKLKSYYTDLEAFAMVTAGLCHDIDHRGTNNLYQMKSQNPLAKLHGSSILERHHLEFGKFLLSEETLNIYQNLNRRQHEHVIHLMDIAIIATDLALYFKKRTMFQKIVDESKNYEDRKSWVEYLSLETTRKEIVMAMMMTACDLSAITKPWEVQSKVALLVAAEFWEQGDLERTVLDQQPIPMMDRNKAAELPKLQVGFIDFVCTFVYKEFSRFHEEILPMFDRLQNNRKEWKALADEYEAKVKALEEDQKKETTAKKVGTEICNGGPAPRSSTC
Description: One unit of enzyme will hydrolyze […] of 3′,5′-cAMP to 5′-AMP per min at pH 7.5 at 30° C. […] 99 μl of diluted enzyme solution is added into each well in a flat bottom 96-well polystyrene plate to which 1 μι of test compound dissolved in 100% DMSO is added.

BV2 cells [1] = assay: RNAseq analysis of LPS-stimulated BV2 cells, differentially expressed transcripts; format: cell-based, mouse; conditions: for genes affected by both Compound 214 and Rolipram / genes significantly affected by this compound but not the other (Compound 214 / Rolipram) / overlap of genes affected by Compound 214 and Rolipram: LPS-stimulated BV2 cells
Description: The test compound is added first, the LPS is added one hour later, and the cells and/or media are harvested at five hours from commencement of the experiment.
RNASeq: Flashfreeze BV2cells, isolate RNA, prepare a library using polyA selection, and conduct 1×50 bp single read sequencing on the Illumina HiSeq 2500 in High Output mode (using V4 chemistry). Genes are mapped to reference genome (GRCm38) using CLC Genomics Server. Number of reads per sample average ˜17 million. Differential gene expression analysis is performed using DESeq2software (Bioconductor.org). Differentially expressed genes (p<0.01, Waldtest) are reported as log 2(fold change).

BV2 cells [2] = assay: RT-qPCR of selected genes in BV2 cells with ITI-214, cyclase activators and PKA/PKG inhibitors; format: cell-based, mouse
Description: In a further experiment a group of genes is selected for further analysis by RT-qPCR. For comparison, genes are analyzed which have been implicated in the scientific literature in microglial and astrocyte activation, including genes in the complement pathway.
All sample values are normalized to an average of 3 reference genes and to vehicle control (ΔΔCt). The error bars represent the mean+/−SEM (n=4). From left to right, for each cytokine grouping, the bars indicate samples treated with: LPS, 0.1 μM 214+LPS, 0.4 μM 214+LPS, 1.1 μM 214+LPS, 3.3 μM 214+LPS, 10 μM 214+LPS, for each particular gene shown on the X-axis. Significant changes between LPS and 10 μM ITI-214+LPS (A) and Vehicle and 10 μM ITI-214 (B) are marked on the X-axis gene names and are calculated using a one-way ANOVA. * p<0.05, **p<0.01, ***p<0.001, ****p<0.0001.
In one particular experiment, BV2 cells are treated with 10 μM forskolin (FSK) to activate adenylyl cyclases, 5 μM DEANO to activate soluble guanylyl cyclase, or 100 nM atrial natriuretic peptide (ANP) to activate particulate guanylyl cyclase. […] Upon combining forskolin with ITI-214 some of the effects of ITI-214 inhibition can be increased. […] However, LIF reverts to LPS-level expression when forskolin is added.
Note that gene expression levels upon addition of PKA or PKG inhibitor to 10 μM ITI-214 are on the order of those relative to LPS treatment alone were reduced to levels equivalent to 3.3 μM ITI-214.

`CN1C(=O)c2c(nn(Cc3ccc(-c4cccc(F)n4)cc3)c2Nc2ccccc2)N2C1=N[C@@H]1CCC[C@@H]12` [Compound 214] was tested. Which IC50 (bovine retina PDE6) did it give?
Its IC50 is 324 nM.

What about the “mRNA transcripts decreased in the presence of LPS + compound vs. LPS alone” value (BV2 cells [1]; BV2 cells, RNAseq) of the same compound?
Its value is 138 transcripts.

And the “overlap between the Compound 214 and rolipram sets of decreased transcripts” value (BV2 cells [1]; BV2 cells, RNAseq)?
The value was 48 transcripts.

What about the “overlap between the Compound 214 and rolipram sets of elevated transcripts” value (BV2 cells [1]; BV2 cells, RNAseq) of the same compound?
Its value is 45 transcripts.

What about the “transcripts elevated in the presence of LPS + compound vs. LPS alone” value (BV2 cells [1]; BV2 cells, RNAseq) of the same compound?
Its value is 149 transcripts.

What about the “genes affected by both Compound 214 and Rolipram” value (BV2 cells [1]; further RNASeq analysis) of the same compound?
Its value is 114 genes.

And the “genes significantly affected by this compound but not the other (Compound 214 / Rolipram)” value (BV2 cells [1]; further RNASeq analysis)?
Its value is 293 genes.

What about the “overlap of genes affected by Compound 214 and Rolipram” value (BV2 cells [1]; further RNASeq analysis) of the same compound?
The value was “about 17%”.

What about the “genes affected by both Compound 214 and Rolipram” value (BV2 cells [1]; still a further experiment) of the same compound?
The value was 683 genes.

And the “genes significantly affected by this compound but not the other (Compound 214 / Rolipram)” value (BV2 cells [1]; still a further experiment)?
Its value is 1240 genes.

What about the “overlap of genes affected by Compound 214 and Rolipram” value (BV2 cells [1]; still a further experiment) of the same compound?
The value was “about half”.

What about the “induction of Cx3cr1 by LPS” value (BV2 cells [2]) of the same compound?
The value was “significantly reduced”.

What about the “modulation of transcriptional responses to LPS” value (BV2 cells [2]; 50 ng/ml LPS, 0.1-10 μM, FIG. 10a) of the same compound?
Its value is “dose dependent”.

And the “ITI-214 responsive transcripts (Cx3cr1, Csf2, TNF, Cc14, MAPKAPK2, PtpN6, Ccr1) with concomitant forskolin” value (BV2 cells [2]; LPS, 10 μM forskolin, FIG. 11a)?
Its value is “further down- or up-modulated”.

What about the “impact of ITI-214 on addition of PKA inhibitor cAMPS-Rp or PKG inhibitor -8-Br-PET-cGMPS” value (BV2 cells [2]; LPS, inhibitors 100 μM, FIG. 11b) of the same compound?
The value was “Moderate reduction”.

And the “basal expression of Cx3cr1” value (BV2 cells [2]; in the absence of LPS)?
Its value is “significantly reduced”.

What about the LIF expression (BV2 cells [2]; with LPS, FIG. 11a) of the same compound?
The LIF expression was “further increased”.
